Laboratory results reported in patent US10786450B2, “Process for preparing a dry powder formulation comprising an anticholinergic, a corticosteroid and a beta-adrenergic” (CHIESI FARMACEUTICI S.p.A., priority 2017, dated 2020).

Experiments:
[1] = Aerosol performance by Next Generation Impactor (NGI) from multidose dry powder inhaler; format: physicochemical; details: Example 3 powder formulation; for Mid Fine particle Fraction: 2.0 to 5.0 microns; for Delivered Dose: multidose DPI of WO 2004/012801, 3 doses; for Mid Fine Particle Mass: particle size between 2.0 and 5.0 microns; for Fine Particle Mass: particle size equal to or lower than 5.0 microns; for Fine Particle Fraction: ratio fine particle mass to delivered dose
Text: After aerosolization of 3 doses from the inhaler device, the NGI apparatus was disassembled and the amounts of drug deposited in the stages were recovered by washing with a solvent mixture and then quantified by High-Performance Liquid Chromatography (HPLC). […] (v) the fine particle fraction (FPF) which is the ratio between the fine particle mass and the delivered dose; and (vi) the MMAD.

[2] = micronized active ingredient as used in Example 3
Experimental: The size of the particles active is determined by measuring the characteristic equivalent sphere diameter, known as volume diameter, by laser diffraction.
Microparticles as obtained in Example 2 were used. […] Beclometasone dipropionate (BDP) having the following particle size was used: d(v0.1)=0.7 micron; d(v0.5)=1.5 micron; and d(v0.9)=2.8 micron.

| SMILES | Extrafine Particle Fraction <1 μm [1] [%] | Extrafine Particle Fraction <2 μm [1] [%] | Extrafine Particle Mass <1 μm [1] [µg] | Extrafine Particle Mass <2 μm [1] [µg] | MMAD [1] [μm] | Mid Fine particle Fraction [1] [%] | Delivered Dose [1] [µg] | Mid Fine Particle Mass [1] [µg] | Fine Particle Mass [1] [µg] | Fine Particle Fraction [1] [%] | d(v0.1) [2] [micron] | d(v0.5) [2] [micron] | d(v0.9) [2] [micron] |
| --- | --- | --- | --- | --- | --- | --- | --- | --- | --- | --- | --- | --- | --- |
| C[N+]1(C)CCC(OC(=O)C(O)(c2ccccc2)C2CCCC2)C1 (racemic) [GB, glycopyrronium bromide] | 9.8 | 26.4 | 1.1 | 2.9 | 1.9 | 21.6 | 11.1 | 2.4 | 5.4 | 48.1 | – | – | – |
| CCC(=O)OCC(=O)[C@@]1(OC(=O)CC)[C@@H](C)C[C@H]2[C@@H]3CCC4=CC(=O)C=C[C@]4(C)[C@@]3(Cl)[C@@H](O)C[C@@]21C [BDP, beclometasone dipropionate] | 13.9 | 32.1 | 12.4 | 28.5 | 1.6 | 17.1 | 88.5 | 15.2 | 43.6 | 49.3 | 0.7 | 1.5 | 2.8 |
